# From publication PMC4527730, “A Pan-GTPase Inhibitor as a Molecular Probe” (PLoS ONE, 2015)
# Columns and labels:
# Rab7, Cdc42 and Ras = experiment: Association and dissociation time course of BODIPY-FL GTP (real-time flow cytometry); format: binding
# Description: GTPases were bound to glutathione-coated microsphere beads overnight and unbound GTPases were removed by washing. The association and dissociation of BODIPY^- FL GTP was analyzed with the Accuri C6 flow cytometer in real-time. The initial 30 s set the baseline fluorescence. […] When the fluorescence plateau was reached, GTP at 50 μM was added to induce BODIPY^- FL GTP dissociation. […] All the concentrations given are the final concentrations.
# Stability in PBS = format: physicochemical; conditions: 23 °C, after 48 hours
# Description: page 7: conclusion, the available data support the idea that compound CID1067700 has non-classical competitive character. […] Solubility was measured in phosphate buffered saline (PBS) at room temperature (23 °C). PBS by definition is 137 mM NaCl, 2.7 mM KCl, 10 mM sodium phosphate dibasic, 2 mM potassium phosphate [monobasic and a pH of 7.4. Detection was based on UV absorbance. […] Solubility was also assessed in the each of the four media used in the individual assays. […] Table 1S. […] Stability, depicted as closed circles in the graph, was assessed at room temperature (23 °C) in PBS (no antioxidants or other protectants and DMSO concentration below 0.1%). Stability data is depicted in Fig. S8 showing the loss of compound with time over a 48 h period with a minimum of 6 time points and providing the percent remaining compound at end of the 48 h period. Under these conditions, 77% of 1 remains after 48 hours. The degradation has not been further characterized.
# Ras = experiment: GTPase and effector interaction assay (Raf1-RBD beads), HeLa cell lysates; conditions: HeLa cells, 10 μM, 2 h, EGF 10 ng/mL 2 min
# Description: GST effector chimeras consisting of the minimal GTPase binding domain were p21-activated kinase p21 binding domain (PAK-PBD) for Cdc42, Raf1 Ras-binding domain (Raf1-RBD) for Ras, and Rab-interacting lysosomal protein (RILP) for Rab7 binding measurements.
# Superdex peptide beads (13 μm, from GE Healthcare) derivatized with GSH were coated with effector proteins to saturation. […] The effector-coated glutathione beads (20,000 beads/assay) were incubated with 200 μL cell lysate from a single treated well for 1 h at 4°C. […] The bead associated fluorescence representing bound GTPase was quantified on an Accuri C6 flow cytometer.
# Rac1 = Rac1 (Homo sapiens, UniProt P63000); experiment: Multiplex bead-based flow cytometry dose-response of fluorescent guanine nucleotide binding
# Description: (§2) Briefly, individual GST-GTPases were separately attached to glutathione microsphere beads that were labeled with varying intensity of red fluorescent dye, and subsequently combined. The buffer contains 30 mM HEPES (pH 7.2), 150 mM KCl, 20 mM NaCl, 0.1% BSA, 1 mM DTT, 1 mM EDTA and 0.1% NP-40. For Rho A and Rac1, 1 mM EDTA was replaced with 1 mM MgCl2 to stabilize the protein. […] To study whether the compounds are slow binders, BODIPY^- FL GTP was added either immediately or 2 h after compound addition. […] The curves were fitted to the sigmoidal dose-response equation using GraphPad Prism. Percent response was calculated as the ratio of (sample MCF–negative control MCF) / (positive control MCF–negative control MCF).
# H-Ras G12V = H-Ras G12V (Homo sapiens, UniProt P01112, G12V); experiment: as above; conditions: EC50 H-Ras G12V
# Description: (§3) Briefly, individual GST-GTPases were separately attached to glutathione microsphere beads that were labeled with varying intensity of red fluorescent dye, and subsequently combined. The buffer contains 30 mM HEPES (pH 7.2), 150 mM KCl, 20 mM NaCl, 0.1% BSA, 1 mM DTT, 1 mM EDTA and 0.1% NP-40. […] To study whether the compounds are slow binders, BODIPY^- FL GTP was added either immediately or 2 h after compound addition. […] The curves were fitted to the sigmoidal dose-response equation using GraphPad Prism. Percent response was calculated as the ratio of (sample MCF–negative control MCF) / (positive control MCF–negative control MCF).
# U937 FPRΔST cells = experiment: PE Annexin V apoptosis assay; format: cell-based; conditions: 24 h or 48 h
# Description: (§1) Cells were plated in a 96-well plate at 2000 cells per well and allowed to incubate overnight. Compound 1 or the same volume of DMSO was added on the second day. Viability was examined after 48 h. Data were collected from at least triplicate samples. Results were reported as viability treated/viability untreated (DMSO control). To evaluate apoptosis, the PE Annexin V Apoptosis Kit I was used. In 6-well plates, H358 cells were seeded at 50% confluence, while U937 FPRΔST cells were at 0.02 x 10^6 /mL. After overnight incubation, the cells were treated with compound 1 or DMSO. At 24 h or 48 h, cells were washed with PBS, and resuspended in 100 uL annexin-V binding buffer. After staining with annexin-V-FITC and 7-AAD, cells were analyzed on an Accuri C6 flow cytometer. At least 7,000 cells were measured per individual sample. The annexin^+AAD^- cells are defined as cells undergoing apoptosis. Data were collected from duplicate samples and the experiments were repeated. Results are given as the ratios of the apoptotic populations between the compound-treated and the DMSO-treated cells.
# H358 cells [1] = experiment: PE Annexin V apoptosis assay; format: cell-based; conditions: 24 h or 48 h
# Description: as §1
# H358 cells [2] = experiment: CellTiter-Glo viability assay; format: cell-based; conditions: 48 h, compared with U937 FPRΔST control cells
# Description: as §1
# [3] = tested on: EGFR degradation, HeLa cells overexpressing Rab7 wild type; experiment: EGFR degradation in Rab7 overexpressing HeLa cells; format: cell-based; conditions: HeLa cells overexpressing Rab7, 100 μM, 3 h, 0-180 min
# Description: The EGFR degradation assay in HeLa cells was carried out in a similar way to that in SCC-12F cells but with modifications. […] Cell lysates were prepared at various time points and immunoblotted for total EGFR while actin served as a loading control. Experiments were carried out in triplicate.
# Cdc42 = Cdc42 (Homo sapiens, UniProt P60953); experiment: Multiplex bead-based flow cytometry dose-response of fluorescent guanine nucleotide binding
# Description: as §3
# [4] = tested on: GTPases (H-Ras, H-Ras G12V, Cdc42, Cdc42 Q61L, Rac1, Rac1 Q61L, RhoA, Rab7); experiment: Multiplex dose-response assay, statements across the GTPase panel
# Description: as §2
# Cdc42 Q61L = Cdc42 Q61L (Homo sapiens, UniProt P60953, Q61L); experiment: Multiplex bead-based flow cytometry dose-response of fluorescent guanine nucleotide binding; conditions: EC50 Cdc42 Q61L
# Description: as §3
# [5] = BODIPY-FL GTP binding, 2 h at 4°C
# [6] = concentration dependence on BODIPY-FL GDP
# Sequence of Cdc42 (P60953 whole entry): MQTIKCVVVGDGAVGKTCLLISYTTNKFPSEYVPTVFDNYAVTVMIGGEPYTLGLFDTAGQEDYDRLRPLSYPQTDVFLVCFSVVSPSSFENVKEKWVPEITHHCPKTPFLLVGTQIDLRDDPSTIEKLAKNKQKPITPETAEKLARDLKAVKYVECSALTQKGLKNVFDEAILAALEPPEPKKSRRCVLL
# Sequence of H-Ras G12V (P01112 whole entry G12V): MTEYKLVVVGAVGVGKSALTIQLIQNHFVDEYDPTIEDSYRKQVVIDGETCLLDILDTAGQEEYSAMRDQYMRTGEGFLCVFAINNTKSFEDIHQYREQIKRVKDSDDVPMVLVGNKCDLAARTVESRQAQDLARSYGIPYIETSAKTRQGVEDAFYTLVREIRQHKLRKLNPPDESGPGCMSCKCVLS
# Sequence of Cdc42 Q61L (P60953 whole entry Q61L): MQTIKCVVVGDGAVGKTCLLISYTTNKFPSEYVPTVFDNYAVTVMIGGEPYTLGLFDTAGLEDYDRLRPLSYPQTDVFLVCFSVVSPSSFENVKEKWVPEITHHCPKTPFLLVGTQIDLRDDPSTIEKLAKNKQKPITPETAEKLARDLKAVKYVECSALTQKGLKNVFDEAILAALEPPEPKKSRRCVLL
smiles,measurement,setting,value
CC1(C)Cc2c(sc(NC(=S)NC(=O)c3ccccc3)c2C(=O)O)CO1 [Compound 1],covalent bond formation with GTPases / reversibility,"Rab7, Cdc42 and Ras; 50 μM overnight, extensive washing",did not form a covalent bond
same,dissociation of pre-bound BODIPY-FL GTP,"Rab7, Cdc42 and Ras; compound 50 μM added at plateau",able to induce dissociation
same,binding of BODIPY-FL GTP in the presence of compound,"Rab7, Cdc42 and Ras; compound 50 μM, BODIPY-FL GTP 100 nM",decreased
same,compound remaining,Stability in PBS,77%
same,level of active Ras after EGF stimulation,Ras,dramatically blunted
same,EC50,"Rac1; EC50 Rac1, BODIPY-FL GTP binding, 2 h at 4°C, 1 mM MgCl2",62 ± 49 nM
same,EC50,"Rac1; EC50 Rac1, concentration dependence on BODIPY-FL GDP",99 nM
same,EC50,H-Ras G12V; [5],52 ± 44 nM
same,EC50,H-Ras G12V; [6],260 nM
same,apoptosis increase,U937 FPRΔST cells,absent
same,apoptosis,H358 cells [1],time-dependent apoptosis increase
same,viability,H358 cells [2],decreased the viability of H358 cells more than the U937 FPRΔST cells
same,EGFR degradation,[3],delayed EGFR degradation
same,EC50,"Cdc42; EC50 Cdc42, BODIPY-FL GTP binding, 2 h at 4°C",1090 ± 1620 nM
same,EC50,"Cdc42; EC50 Cdc42, concentration dependence on BODIPY-FL GDP",420 nM
same,EC50,"Cdc42; EC50 Cdc42_1, with 2 h incubation before BODIPY-FL GTP, Cdc42 purified in house",2060 ± 38 nM
same,EC50,"Cdc42; EC50 Cdc42_1, without incubation before BODIPY-FL GTP, Cdc42 purified in house",2230 ± 1470 nM
same,EC50,"Cdc42; EC50 Cdc42_2, with 2 h incubation before BODIPY-FL GTP, Cdc42 from Cytoskeleton",3710 ± 39 nM
same,EC50,"Cdc42; EC50 Cdc42_2, without incubation before BODIPY-FL GTP, Cdc42 from Cytoskeleton",4460 ± 2630 nM
same,inhibitory activity on BODIPY-FL GTP binding across all GTPases tested (in words),[4]; SAR versus compound 1,inhibited BODIPY^- FL GTP binding to all the GTPases tested in a dose-dependent manner
same,slow binding behaviour,[4]; two-hour incubation or no incubation before BODIPY-FL GTP,not a slow binder
same,EC50,Cdc42 Q61L; [5],47 ± 38 nM
same,EC50,Cdc42 Q61L; [6],350 nM
